Reference: the CheMixHub viscosity set
Several values for one entry are separate records, joined by “and”; a condition that tells them apart may be missing. Equal entries are not always repeated.

Legend:
[1] = xn = mol fraction of the nth substance listed

CCC(=O)CC
viscosity
Conditions	298.15 K	303.15 K	308.15 K	313.15 K	318.15 K
100 kPa	–	0.428 mPa·s	–	0.366 mPa·s	–
101 kPa	0.449 mPa·s and 0.437 mPa·s	–	0.396 mPa·s and 0.393 mPa·s	0.376 mPa·s and 0.376 mPa·s	–
101.33 kPa	0.408 mPa·s	0.424 mPa·s	0.373 mPa·s	–	0.351 mPa·s

NCCO
viscosity
Conditions	293.15 K	298.15 K	303.15 K	313.15 K	318.15 K	323.15 K
101 kPa	31.3 mPa·s	18.64 mPa·s	15.34 mPa·s and 14.05 mPa·s	9.9 mPa·s and 9.972 mPa·s and 9.95 mPa·s	8.1 mPa·s	6.88 mPa·s and 9.44 mPa·s and 7.01 mPa·s
101.3 kPa	–	–	–	9.702 mPa·s	–	–

C1CCCC1
viscosity [mPa·s]
Conditions	293.15 K	303.15 K	313.15 K
100 kPa	0.428	0.385	0.348
101 kPa	–	0.387	–
101.3 kPa	–	–	0.3545

C[n+]1ccn(CCCCCn2cc[n+](C)c2)c1.O=S(=O)([N-]S(=O)(=O)C(F)(F)F)C(F)(F)F.O=S(=O)([N-]S(=O)(=O)C(F)(F)F)C(F)(F)F
101 kPa
Conditions	viscosity
293.15 K	1125 mPa·s and 1123 mPa·s
303.15 K	554.9 mPa·s and 556.8 mPa·s
313.15 K	313.4 mPa·s and 310.4 mPa·s
323.15 K	192.3 mPa·s and 188.8 mPa·s

CCC(C)CC(C)C (stereo not given)
100 kPa
Conditions	viscosity [mPa·s]
293.15 K	0.476
298.15 K	0.455
303.15 K	0.434
308.15 K	0.416
313.15 K	0.4

CC(C)(C)C1CCCCC1
102 kPa
Conditions	viscosity [mPa·s]
293.15 K	1.7
303.15 K	1.42
313.15 K	1.21
323.15 K	1.04

CN1CCCC1=O
viscosity
Conditions	293.15 K	298 K	303 K	303.15 K	313 K	313.15 K	318 K	323 K	323.15 K
100 kPa	1.853 mPa·s	–	–	–	–	–	–	–	–
101 kPa	1.91 mPa·s	1.61 mPa·s	1.5 mPa·s	1.623 mPa·s and 1.521 mPa·s	1.29 mPa·s	1.401 mPa·s and 1.3 mPa·s	1.22 mPa·s	1.12 mPa·s	1.231 mPa·s

OCc1ccccc1
Conditions	viscosity
293.15 K, 100 kPa	6.421 mPa·s
293.15 K, 101.33 kPa	6.536 mPa·s
298.15 K, 101 kPa	4.936 mPa·s and 5.54 mPa·s and 5.737 mPa·s
298.15 K, 101.3 kPa	5.313 mPa·s
298.15 K, 101.33 kPa	5.276 mPa·s
303.15 K, 101.3 kPa	4.609 mPa·s and 4.515 mPa·s
308.15 K, 101 kPa	3.66 mPa·s and 4.045 mPa·s
308.15 K, 101.3 kPa	3.877 mPa·s
308.15 K, 101.33 kPa	3.891 mPa·s
313.15 K, 101 kPa	3.121 mPa·s and 3.614 mPa·s and 3.51 mPa·s
318.15 K, 101.33 kPa	2.945 mPa·s
323.15 K, 101 kPa	2.646 mPa·s and 2.548 mPa·s
323.15 K, 101.33 kPa	2.591 mPa·s

CC(=O)OC(C)=O
viscosity [mPa·s]
Conditions	298.15 K	313.15 K	323.15 K
101 kPa	0.842	0.693	–
101.33 kPa	0.831	–	0.611

CCN(CC)C(C)=O
Conditions	viscosity [mPa·s]
298.16 K, 101 kPa	1.226

C=CCc1ccc2c(c1)OCO2
Conditions	viscosity [mPa·s]
298.15 K, 101 kPa	2.29

C1CCCC1 + CC(C)CO
viscosity [mPa·s], [1], 101 kPa
Conditions	298.15 K	308.15 K
x1 = 0.0603	2.848	1.934
x1 = 0.1025	2.58	1.68
x1 = 0.1812	2.236	1.478
x1 = 0.2538	1.84	1.237
x1 = 0.3617	1.355	0.9824
x1 = 0.4947	0.9586	0.7014
x1 = 0.5816	0.8054	0.6185
x1 = 0.6617	0.6549	0.5283
x1 = 0.7863	0.5622	0.4429
x1 = 0.8809	0.4552	0.3863
x1 = 0.9205	0.4381	0.3695
x1 = 0.9474	0.4233	0.3609

OCc1ccccc1 + CC(C)O
viscosity [mPa·s], [1], 101 kPa
Conditions	x1 = 0.076	x1 = 0.1562	x1 = 0.2409	x1 = 0.3305	x1 = 0.4254	x1 = 0.5262	x1 = 0.6334	x1 = 0.7476	x1 = 0.8695
298.15 K	2.033	2.167	2.366	2.607	2.88	3.203	3.57	3.975	4.423
303.15 K	1.776	1.896	2.06	2.258	2.486	2.756	3.06	3.4	3.785
308.15 K	1.532	1.649	1.796	1.975	2.172	2.406	2.675	2.975	3.304
313.15 K	1.338	1.432	1.556	1.701	1.87	2.07	2.303	2.557	2.828

OCc1ccccc1 + CCCCCC
viscosity [mPa·s], [1], 101.3 kPa
Conditions	303.15 K	313.15 K	323.15 K
x1 = 0.0101	0.303	0.284	0.254
x2 = 0.0312	4.044	3.013	2.36
x2 = 0.0645	3.832	2.754	2.173
x2 = 0.0976	3.35	2.394	1.974
x2 = 0.1313	3.119	2.256	1.79
x2 = 0.1653	2.649	2.004	1.616
x2 = 0.2056	2.328	1.827	1.455
x2 = 0.255	1.972	1.615	1.327
x2 = 0.8792	0.364	0.335	0.307
x2 = 0.955	0.326	0.302	0.268
x2 = 0.9699	0.32	0.3	0.262
x2 = 0.9799	0.312	0.292	0.258

NCCO.O=S(=O)([N-]S(=O)(=O)C(F)(F)F)C(F)(F)F.[Li+]
Conditions	viscosity [mPa·s]
323.15 K, 101 kPa	1157
